From patent publication US20120071501A1, “USE OF EXTRACTS OF THE GENUS CIMICIFUGA AS ORGANOSELECTIVE MEDICINES FOR TREATING DISEASES OF THE GENITOURINARY TRACT CAUSED BY SEX HORMONES” (Bionorica AG, priority 2001, published 2012)

Legend:
[1] = tested on: rat prostate; assay: In-vivo experiments in the rat prostate in the whole-body model; conditions: castrated rat
[2] = tested on: IGF1; assay: IGF1 gene expression in the prostate of castrated male rats; assay type: in vivo, rat
[3] = tested on: urinary bladder of ovarectomized rats; assay: Differential bladder tonus (bladder elasticity) of ovarectomized rats; assay type: in vivo, rat
Procedure: Following a three-month treatment of ovarectomized rats with Cimicifuga racemosa extract, the maximum pressure in the urinary bladder [in mm Hg] and the minimum pressure [in mm Hg] following relaxation of the bladder were determined by instillation of 1 ml of physiological saline solution.

[4] = tested on: estrogen receptor-alpha; assay: Expression of estrogen receptor-alpha in the urinary bladder; assay type: in vivo, rat; conditions: ovarectomized rats
Text: In the bladder both the estrogen receptor ER-alpha and ER-beta are expressed.

[5] = tested on: estrogen receptor of the alpha-subtype; assay: Gene expression of estrogen receptor alpha-subtype in the prostate of male castrated rat; assay type: in vivo
[6] = tested on: estrogen receptor-beta; assay: Gene expression of estrogen receptor-beta in the prostate of male castrated rat; assay type: in vivo

SMILES: C[C@]12CC[C@H]3[C@@H](CCC4=CC(=O)CC[C@@]43C)[C@@H]1CC[C@@H]2O [testosterone]
- prostate regression induced by castration [1]: could be antagonized
- gene expression of the growth factor IGF1 in the prostate [2]: regulated up

SMILES: O=C(c1ccc(OCN2CCCCC2)cc1)c1c(-c2ccc(O)cc2)sc2cc(O)ccc12 [Raloxifen]
- differential pressure between maximum and minimum pressure (bladder elasticity) ([3]; highest Cimicifuga dose 400 mg/kg/d, compared with Raloxifen): comparable

SMILES: C[C@]12CC[C@@H]3c4ccc(O)cc4CC[C@H]3[C@@H]1CC[C@@H]2O [estradiol, 17β-estradiol]
- differential pressure between maximum and minimum pressure (bladder elasticity) ([3]; three-month treatment, instillation of 1 ml physiological saline, in comparison with placebo controls): most effective substance
- expression of the estrogen receptor-alpha in the urinary bladder [4]: regulate down
- gene expression of the estrogen receptor of the alpha-subtype in the prostate [5]: significantly inhibit
- gene expression of the estrogen receptor-beta in the prostate [6]: without having an effect
